According to patent US12109305B2, “Materials architecture for gastric residence systems” (Lyndra Therapeutics, Inc., priority 2016, dated 2024):

Test: Degradation of time-dependent coupling polymer components in simulated gastric fluid
Assay type: physicochemical
Details: seven days
From the text: Additional preferred polymers for use as coupling polymers are time-dependent polymers, that is, polymers that degrade in a time-dependent manner in the gastric environment.

degradation / retention of strength in simulated gastric fluid: degrades in a time-dependent manner
Structure (SMILES): CC(=O)OCC(COC(C)=O)OC(C)=O [triacetin]
